Test results from ChEMBL document CHEMBL5465560, “Selectivity Literature for EUbOPEN Chemogenomic Library” (2024).

Key:
[1] = biological target: Ribosomal protein S6 kinase alpha-3 (Homo sapiens, UniProt P51812); assay: Selectivity interaction (Kinase panel (KiNativ target engagement assay in Jurkat cells)) EUB0001635a RPS6KA3; type: cell-based; conditions: Selectivity number of off-targets 0.0, Selectivity number of targets 233.0, Source Knowledge https://www.sciencedirect.com/science/article/pii/S2451945619300674?via%3Dihub, at 1 µM
[2] = biological target: Ribosomal protein S6 kinase alpha-1 (Homo sapiens, UniProt Q15418); assay: Selectivity interaction (KinomeScan (DiscoverX)) EUB0000229b RPS6KA1; conditions: at 10 µM
[3] = biological target: Serine/threonine-protein kinase SIK2 (Homo sapiens) (UniProt Q9H0K1); assay: Selectivity interaction (KinomeScan (DiscoverX)) EUB0000045b SIK2
Serine/threonine-protein kinase SIK2 (Homo sapiens), sequence (Q9H0K1 whole entry, looked up, canonical isoform): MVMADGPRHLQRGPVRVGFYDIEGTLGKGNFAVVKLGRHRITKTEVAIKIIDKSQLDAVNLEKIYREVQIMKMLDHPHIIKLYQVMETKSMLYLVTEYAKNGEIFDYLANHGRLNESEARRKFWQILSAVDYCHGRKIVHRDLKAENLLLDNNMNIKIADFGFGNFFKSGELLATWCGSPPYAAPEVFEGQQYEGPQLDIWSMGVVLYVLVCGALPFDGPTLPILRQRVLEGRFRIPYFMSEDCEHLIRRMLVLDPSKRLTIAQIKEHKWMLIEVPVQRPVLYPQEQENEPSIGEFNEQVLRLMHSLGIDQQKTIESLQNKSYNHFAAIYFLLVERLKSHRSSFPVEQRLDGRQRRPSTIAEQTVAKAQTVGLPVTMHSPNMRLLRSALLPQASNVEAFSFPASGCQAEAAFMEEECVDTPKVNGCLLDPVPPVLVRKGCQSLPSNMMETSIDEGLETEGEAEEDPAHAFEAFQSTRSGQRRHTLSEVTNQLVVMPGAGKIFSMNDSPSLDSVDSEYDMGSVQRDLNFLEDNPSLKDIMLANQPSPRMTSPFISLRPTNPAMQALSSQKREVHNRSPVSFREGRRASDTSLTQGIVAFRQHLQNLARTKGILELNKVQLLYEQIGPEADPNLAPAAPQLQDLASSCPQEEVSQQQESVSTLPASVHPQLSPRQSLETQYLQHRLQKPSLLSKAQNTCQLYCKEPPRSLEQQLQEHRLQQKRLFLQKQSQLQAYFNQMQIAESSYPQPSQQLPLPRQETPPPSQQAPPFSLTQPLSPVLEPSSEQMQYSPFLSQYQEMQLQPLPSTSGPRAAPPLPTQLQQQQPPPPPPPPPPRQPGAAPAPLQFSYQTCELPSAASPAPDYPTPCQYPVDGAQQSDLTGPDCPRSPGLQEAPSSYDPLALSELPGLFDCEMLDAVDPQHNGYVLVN

[4] = biological target: Casein kinase I isoform gamma-2 (Homo sapiens) (UniProt P78368); assay: Selectivity interaction (KinomeScan (DiscoverX)) EUB0001079a CSNK1G2; conditions: at 1 µM
Casein kinase I isoform gamma-2 (Homo sapiens), sequence (P78368 whole entry, looked up, canonical isoform): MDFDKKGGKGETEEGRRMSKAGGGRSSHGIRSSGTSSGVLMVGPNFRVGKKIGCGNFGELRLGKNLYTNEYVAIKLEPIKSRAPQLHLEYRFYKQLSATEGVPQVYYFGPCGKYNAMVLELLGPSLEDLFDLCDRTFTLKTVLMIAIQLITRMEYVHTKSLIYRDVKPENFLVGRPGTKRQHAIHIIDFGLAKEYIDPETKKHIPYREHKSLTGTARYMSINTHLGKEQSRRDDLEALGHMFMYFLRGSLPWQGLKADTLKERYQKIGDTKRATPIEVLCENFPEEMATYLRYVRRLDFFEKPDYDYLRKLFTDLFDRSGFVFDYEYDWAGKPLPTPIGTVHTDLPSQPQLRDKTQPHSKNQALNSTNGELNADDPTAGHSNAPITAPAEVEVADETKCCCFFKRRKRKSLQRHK

[5] = biological target: T1, Dual specificity mitogen-activated protein kinase kinase 4 (Homo sapiens) (UniProt P45985); assay: Selectivity interaction (KinomeScan (DiscoverX)) EUB0001079a MAP2K4; conditions: at 1 µM
T1 sequence (whole entry): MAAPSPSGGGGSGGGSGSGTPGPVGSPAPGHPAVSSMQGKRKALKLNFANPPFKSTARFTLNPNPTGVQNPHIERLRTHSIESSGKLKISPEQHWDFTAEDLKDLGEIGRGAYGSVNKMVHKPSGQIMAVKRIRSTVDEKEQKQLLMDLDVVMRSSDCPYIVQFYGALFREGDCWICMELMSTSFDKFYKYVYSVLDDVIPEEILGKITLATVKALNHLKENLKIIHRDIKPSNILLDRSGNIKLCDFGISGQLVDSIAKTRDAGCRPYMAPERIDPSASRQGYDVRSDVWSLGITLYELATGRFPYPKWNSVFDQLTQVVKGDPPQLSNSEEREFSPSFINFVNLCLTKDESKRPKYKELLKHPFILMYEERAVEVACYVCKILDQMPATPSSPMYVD

[6] = biological target: SWI/SNF-related matrix-associated actin-dependent regulator of chromatin subfamily A member 2 (Homo sapiens, UniProt P51531); assay: Selectivity interaction (Bromodomain panel (DSF asssay)) EUB0000270b SMARCA2
SWI/SNF-related matrix-associated actin-dependent regulator of chromatin subfamily A member 2, sequence (P51531 whole entry): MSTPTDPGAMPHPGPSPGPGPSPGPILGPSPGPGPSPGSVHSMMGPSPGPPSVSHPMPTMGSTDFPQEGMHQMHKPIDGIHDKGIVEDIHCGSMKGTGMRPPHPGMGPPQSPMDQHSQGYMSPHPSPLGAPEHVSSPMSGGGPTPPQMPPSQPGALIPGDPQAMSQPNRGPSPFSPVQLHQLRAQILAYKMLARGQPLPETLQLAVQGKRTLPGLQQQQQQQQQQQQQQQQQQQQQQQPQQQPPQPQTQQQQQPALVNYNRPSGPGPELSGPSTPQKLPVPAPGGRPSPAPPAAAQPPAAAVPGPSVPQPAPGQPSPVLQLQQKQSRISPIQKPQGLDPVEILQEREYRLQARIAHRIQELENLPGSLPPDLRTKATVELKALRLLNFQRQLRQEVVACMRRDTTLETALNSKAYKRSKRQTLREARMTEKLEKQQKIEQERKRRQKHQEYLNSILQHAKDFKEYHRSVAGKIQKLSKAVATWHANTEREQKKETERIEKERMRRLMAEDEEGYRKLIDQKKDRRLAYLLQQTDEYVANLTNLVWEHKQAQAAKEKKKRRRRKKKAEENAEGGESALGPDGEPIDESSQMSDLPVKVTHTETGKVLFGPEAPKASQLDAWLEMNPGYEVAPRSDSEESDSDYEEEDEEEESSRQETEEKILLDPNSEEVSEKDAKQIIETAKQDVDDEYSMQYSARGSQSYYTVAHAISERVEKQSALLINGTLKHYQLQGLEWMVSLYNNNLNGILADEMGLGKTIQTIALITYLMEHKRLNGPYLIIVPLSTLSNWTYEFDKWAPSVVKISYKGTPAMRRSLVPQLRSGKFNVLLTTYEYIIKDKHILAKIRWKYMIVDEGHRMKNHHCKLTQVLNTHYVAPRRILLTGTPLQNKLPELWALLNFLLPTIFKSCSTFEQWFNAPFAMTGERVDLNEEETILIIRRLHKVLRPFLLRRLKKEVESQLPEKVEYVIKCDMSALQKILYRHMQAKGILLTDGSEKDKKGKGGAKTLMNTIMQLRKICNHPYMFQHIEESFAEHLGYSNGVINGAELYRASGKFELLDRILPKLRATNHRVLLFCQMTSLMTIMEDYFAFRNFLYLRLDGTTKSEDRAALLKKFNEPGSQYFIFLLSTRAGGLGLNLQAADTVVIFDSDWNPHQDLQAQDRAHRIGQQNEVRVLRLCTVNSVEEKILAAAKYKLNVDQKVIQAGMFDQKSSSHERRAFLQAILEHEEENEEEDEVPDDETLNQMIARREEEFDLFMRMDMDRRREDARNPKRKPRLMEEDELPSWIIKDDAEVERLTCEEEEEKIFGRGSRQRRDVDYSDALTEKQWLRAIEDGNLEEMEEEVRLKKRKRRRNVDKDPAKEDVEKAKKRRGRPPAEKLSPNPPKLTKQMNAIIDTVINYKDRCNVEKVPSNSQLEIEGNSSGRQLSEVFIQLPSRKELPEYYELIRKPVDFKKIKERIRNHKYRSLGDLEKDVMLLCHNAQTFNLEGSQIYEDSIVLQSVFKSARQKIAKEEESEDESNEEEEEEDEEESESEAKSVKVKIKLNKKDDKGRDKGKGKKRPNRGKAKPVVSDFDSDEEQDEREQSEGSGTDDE

[7] = biological target: Death-associated protein kinase 2 (Homo sapiens) (UniProt Q9UIK4); assay: Selectivity interaction (KinomeScan (DiscoverX)) EUB0001049a DAPK2; conditions: at 1 µM
Death-associated protein kinase 2 (Homo sapiens), sequence (Q9UIK4 whole entry, looked up): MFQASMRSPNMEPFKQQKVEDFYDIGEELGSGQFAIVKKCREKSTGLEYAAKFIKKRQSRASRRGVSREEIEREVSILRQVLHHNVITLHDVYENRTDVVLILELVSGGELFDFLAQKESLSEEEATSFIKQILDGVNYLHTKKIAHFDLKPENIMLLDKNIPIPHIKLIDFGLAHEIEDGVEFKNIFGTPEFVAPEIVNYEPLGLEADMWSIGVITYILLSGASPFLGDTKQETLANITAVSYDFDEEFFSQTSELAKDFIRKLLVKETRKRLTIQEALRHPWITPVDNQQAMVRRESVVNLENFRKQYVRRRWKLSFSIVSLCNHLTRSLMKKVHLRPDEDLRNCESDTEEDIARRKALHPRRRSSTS

[8] = biological target: Protein kinase C gamma type (Homo sapiens) (UniProt P05129); assay: Selectivity interaction (Upstate Kinase Profiler service (Millipore)) EUB0000056c PRKCG; conditions: at 1 µM
[9] = biological target: Mitogen-activated protein kinase kinase kinase 9 (Homo sapiens) (UniProt P80192); assay: Selectivity interaction (KinomeScan (DiscoverX)) EUB0001619a MAP3K9; conditions: at 1 µM
Mitogen-activated protein kinase kinase kinase 9 (Homo sapiens), sequence (P80192 whole entry, looked up): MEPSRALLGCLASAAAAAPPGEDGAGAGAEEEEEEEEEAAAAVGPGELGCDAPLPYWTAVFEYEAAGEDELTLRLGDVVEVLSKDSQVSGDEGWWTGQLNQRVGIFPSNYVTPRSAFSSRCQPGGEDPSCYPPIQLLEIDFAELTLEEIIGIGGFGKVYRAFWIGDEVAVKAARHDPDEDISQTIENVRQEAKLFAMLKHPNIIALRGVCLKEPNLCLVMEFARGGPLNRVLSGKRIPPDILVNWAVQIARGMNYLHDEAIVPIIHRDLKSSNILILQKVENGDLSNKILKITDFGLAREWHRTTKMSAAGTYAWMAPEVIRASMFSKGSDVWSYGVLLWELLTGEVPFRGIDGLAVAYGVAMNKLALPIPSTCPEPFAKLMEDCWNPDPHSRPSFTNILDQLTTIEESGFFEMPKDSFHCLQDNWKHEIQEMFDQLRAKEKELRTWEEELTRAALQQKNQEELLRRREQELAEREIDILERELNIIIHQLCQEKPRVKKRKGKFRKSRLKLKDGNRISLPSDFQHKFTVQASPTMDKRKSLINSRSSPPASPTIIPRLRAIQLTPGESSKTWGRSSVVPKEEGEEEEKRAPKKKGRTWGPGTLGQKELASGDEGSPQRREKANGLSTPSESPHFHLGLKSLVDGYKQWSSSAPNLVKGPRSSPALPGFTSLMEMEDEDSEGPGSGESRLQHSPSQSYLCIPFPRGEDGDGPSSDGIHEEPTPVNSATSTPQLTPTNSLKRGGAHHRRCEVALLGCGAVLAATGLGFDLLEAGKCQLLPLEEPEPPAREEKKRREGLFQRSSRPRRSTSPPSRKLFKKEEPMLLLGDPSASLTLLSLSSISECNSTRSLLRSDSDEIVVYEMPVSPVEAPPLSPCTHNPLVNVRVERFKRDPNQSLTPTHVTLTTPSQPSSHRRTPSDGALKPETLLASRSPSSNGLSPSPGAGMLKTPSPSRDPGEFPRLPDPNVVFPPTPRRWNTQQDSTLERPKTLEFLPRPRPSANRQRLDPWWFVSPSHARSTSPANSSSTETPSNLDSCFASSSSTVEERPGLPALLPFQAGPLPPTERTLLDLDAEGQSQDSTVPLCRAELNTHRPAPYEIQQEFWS

[10] = biological target: Dual specificity mitogen-activated protein kinase kinase 1 (Homo sapiens, UniProt Q02750); assay: Selectivity interaction (KinomeScan (DiscoverX)) EUB0000655a MAP2K1; conditions: at 10 µM
Dual specificity mitogen-activated protein kinase kinase 1, sequence (Q02750 whole entry): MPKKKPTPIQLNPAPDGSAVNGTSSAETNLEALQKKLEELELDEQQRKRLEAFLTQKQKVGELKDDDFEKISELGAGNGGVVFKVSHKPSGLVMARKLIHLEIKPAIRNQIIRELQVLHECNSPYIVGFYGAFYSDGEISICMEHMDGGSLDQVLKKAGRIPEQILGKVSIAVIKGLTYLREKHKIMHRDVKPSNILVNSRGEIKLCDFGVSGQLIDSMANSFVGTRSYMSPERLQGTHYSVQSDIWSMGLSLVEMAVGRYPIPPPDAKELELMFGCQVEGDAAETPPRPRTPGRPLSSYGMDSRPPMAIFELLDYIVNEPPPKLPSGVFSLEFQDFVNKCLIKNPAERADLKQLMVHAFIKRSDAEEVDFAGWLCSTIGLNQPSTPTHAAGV

[11] = biological target: T2, Mitogen-activated protein kinase kinase kinase 6 (Homo sapiens) (UniProt O95382); assay: Selectivity interaction (Ambit KINOMEscan and KiNATiv profiling in Jurkat cells) EUB0000090b MAP3K6; type: cell-based; conditions: at 1 µM
T2 sequence (whole entry): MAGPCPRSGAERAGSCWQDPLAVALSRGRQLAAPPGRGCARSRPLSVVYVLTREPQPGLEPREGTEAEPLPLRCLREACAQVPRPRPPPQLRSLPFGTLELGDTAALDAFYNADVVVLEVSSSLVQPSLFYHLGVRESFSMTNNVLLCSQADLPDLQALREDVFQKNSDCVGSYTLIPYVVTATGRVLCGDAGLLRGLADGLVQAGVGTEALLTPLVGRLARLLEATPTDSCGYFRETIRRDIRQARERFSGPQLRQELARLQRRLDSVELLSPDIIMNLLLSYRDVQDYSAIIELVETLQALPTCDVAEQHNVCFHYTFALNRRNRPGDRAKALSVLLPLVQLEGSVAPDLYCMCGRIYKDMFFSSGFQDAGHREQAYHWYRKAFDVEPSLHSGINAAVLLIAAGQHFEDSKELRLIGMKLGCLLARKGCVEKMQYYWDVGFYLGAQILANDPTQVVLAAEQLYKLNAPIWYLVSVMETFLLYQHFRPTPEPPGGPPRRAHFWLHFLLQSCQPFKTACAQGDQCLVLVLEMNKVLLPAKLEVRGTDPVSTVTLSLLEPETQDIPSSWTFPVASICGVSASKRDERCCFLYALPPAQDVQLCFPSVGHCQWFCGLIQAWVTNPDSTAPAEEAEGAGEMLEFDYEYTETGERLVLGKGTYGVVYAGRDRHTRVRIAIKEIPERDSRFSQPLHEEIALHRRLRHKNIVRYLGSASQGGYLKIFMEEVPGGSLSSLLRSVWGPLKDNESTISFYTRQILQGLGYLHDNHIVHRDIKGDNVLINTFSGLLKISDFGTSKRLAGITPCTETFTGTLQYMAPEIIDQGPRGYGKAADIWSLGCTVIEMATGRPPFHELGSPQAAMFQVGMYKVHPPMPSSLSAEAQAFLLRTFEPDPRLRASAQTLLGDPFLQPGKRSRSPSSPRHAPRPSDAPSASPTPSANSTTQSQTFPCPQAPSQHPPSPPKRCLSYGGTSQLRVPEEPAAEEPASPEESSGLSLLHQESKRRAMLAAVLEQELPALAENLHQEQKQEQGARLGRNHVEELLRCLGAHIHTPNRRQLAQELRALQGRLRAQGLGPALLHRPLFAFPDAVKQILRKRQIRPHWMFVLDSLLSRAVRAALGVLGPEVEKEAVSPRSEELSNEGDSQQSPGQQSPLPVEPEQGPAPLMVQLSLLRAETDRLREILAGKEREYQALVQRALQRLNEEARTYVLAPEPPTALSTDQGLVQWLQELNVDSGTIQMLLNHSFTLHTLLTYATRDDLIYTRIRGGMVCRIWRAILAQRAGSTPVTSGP

[12] = biological target: T3, Myosin light chain kinase family member 4 (Homo sapiens) (UniProt Q86YV6); assay: Selectivity interaction (Ambit KINOMEscan and KiNATiv profiling in Jurkat cells) EUB0000090b MYLK4; type: cell-based; conditions: at 1 µM
T3 sequence (whole entry): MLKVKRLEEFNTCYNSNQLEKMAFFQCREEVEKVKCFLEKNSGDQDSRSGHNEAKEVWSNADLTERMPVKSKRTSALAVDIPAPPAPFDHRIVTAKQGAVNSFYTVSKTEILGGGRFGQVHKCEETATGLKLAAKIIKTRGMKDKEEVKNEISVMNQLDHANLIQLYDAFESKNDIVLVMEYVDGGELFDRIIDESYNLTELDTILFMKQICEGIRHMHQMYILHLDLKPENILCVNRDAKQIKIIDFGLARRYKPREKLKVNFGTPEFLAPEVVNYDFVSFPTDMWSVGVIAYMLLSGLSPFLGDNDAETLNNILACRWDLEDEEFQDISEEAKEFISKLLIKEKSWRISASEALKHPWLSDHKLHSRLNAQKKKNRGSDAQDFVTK

SMILES: C=CC(=O)Nc1ccc(C(=O)Nc2[nH]nc3c2CN(C(=O)N[C@H](CN(C)C)c2ccccc2)C3(C)C)cc1
- % of engagement [1]: 13.1%

SMILES: COc1cc(N(C)c2ccnc3ccc(C(F)(F)F)cc23)cc(OC)c1OC
- % binding [2]: 93%

SMILES: C=CC(=O)Nc1cc(-n2c(=O)ccc3cnc4ccc(-c5ccc(NS(C)(=O)=O)cc5)cc4c32)ccc1C
- % of control ([3]; at 1 µM): 100%
- % of control ([3]; at 10 µM): 100%

SMILES: Nc1cnc(N2CCc3cc(S(=O)(=O)Nc4c(F)cc(Cl)cc4F)cc(N4CCCC4=O)c32)nc1 [TP-020n]
- % of control [4]: 88%
- % of control [5]: 100%

SMILES: Cc1cc(CN)cc(C)c1-c1ncn(C)c1-c1cncn1C
- dTM [6]: -0.5 K

SMILES: COc1cc(Nc2nc(C)cc(-c3cnn4nc(OC)ccc34)n2)cc(C(F)(F)F)c1
- % of control [7]: 100%

SMILES: Cc1ccc(-c2ccc3c(ccc4sc5c(c43)NC[C@@H](C)NC5=O)n2)cn1
- % of inhibition [8]: 17%

SMILES: N#Cc1cccc(-c2c[nH]c3ncnc(N4CCOCC4)c23)c1
- % of control [9]: 72%

SMILES: CN(C)CCOc1ccc(-c2nc(-c3ccncc3)c(-c3ccc4c(c3)CC/C4=N\O)[nH]2)cc1
- % of control [10]: 99%

SMILES: CN(C)C/C=C/C(=O)Nc1ccc(C(=O)N2CCCC(Nc3ncc(Cl)c(-c4c[nH]c5ccccc45)n3)C2)cc1 (stereo not drawn)
- % of control [11]: 100%
- % of control [12]: 55%
